System: 5-LOX mediated LT biosynthesis
Assay: LT biosynthesis inhibition assay in activated neutrophile granulocytes, LTB4 EIA
Format: cell-based, human
Details: for IC50 / inhibition at 50 µM: Homo sapiens; for inhibition at 50 µM: screening concentration 50 μM
Method: 1.) LT biosynthesis inhibition assay
The assay was performed as described in [Michael Adams, Olaf Kunert, Ernst Haslinger, Rudolf Bauer: Inhibition of Leukotriene Biosynthesis by Quinolone Alkaloids from the Fruits of Evodia Rutaecarpa; Planta med. 2004 (70): 904-908] with some modifications.
Principle: Activated neutrophile granulocytes with 5-LOX activity are incubated with a defined concentration of test sample and arachidonic acid. After stopping the enzymatic reaction by addition of formic acid and centrifugation to remove cellular fragments, the produced LTB4 is quantified in the supernatant by means of an LTB4 EIA kit.
Isolation of human neutrophile granulocytes: 30 ml of venous human blood from healthy voluntary donors are collected with a Vacutainer™ (BD, Plymouth, UK) system containing a 0.219 M pre-analytical citric acid solution. The blood is immediately transferred to a falcon tube containing 20 ml of sedimentation solution (1% NaCl, 6% dextran T-500) and left to separate for 60 min at 4° C. While most of the dense erythrocytes sink into the dextran layer, the lighter blood fractions remain in the upper layer which is then removed and centrifuged at 1600 rpm (4° C., 10 min) to concentrate the leukocytes. The plasma supernatant is discarded, the pellet is resuspended in 10 ml of a wash buffer (10% CaCl2.2H2O p.a.; 0.1% anhydrous d-glucose; 0.2% MgCl2.6H2O; 0.04% KCl; 1.75% TRIS p.a.; with the pH adjusted to 7.6 with 1N HCl). After centrifugation at 1400 rpm (4° C., 10 min) and removal of the supernatant the resulting pellet is resuspended in 10 ml of a hypotonic lysis buffer (0.17% NH4Cl; 0.2% TRIS; pH 7.2) and gently shaken for 5 min at room temperature to destroy remaining erythrocytes. The suspension is submitted to another centrifugation at 1400 rpm (4° C., 5 min). The pellet is resuspended in 10 ml of wash buffer and then centrifuged at 1400 rpm (4° C., 15 min). The resulting pellet which now mainly contains neutrophile granulocytes is resuspended in 2 ml of TRIS buffer (1.75% TRIS p.a., 0.9% NaCl, pH 7.4), tested for vitality, quantified and then diluted to a cell concentration of 4500 cells/ml with TRIS buffer.
Cell vitality test: 50 μl of cell suspension and 10 μl of trypan blue solution (0.4%) (Sigma Chemical Co. Steinheim, Germany) are mixed on a glass object carrier and examined with a light microscope at 1000 fold magnification. Dead cells appear larger and darker due to absorption of trypan blue. The vitality of the cells must be >95%.
Determination of cell concentration: 10 μl of granulocyte cell suspension are dyed using 990 μl aqueous TURKS solution (Merck) and quantified in a “Neubauer” chamber (Assistent, Germany).
Sample preparation: samples are dissolved in an appropriate amount of ethanol p.a. to be added to the test mixture resulting in screening concentrations of 50 μM for pure compounds and 20 μg/ml for crude. The commercially available 5-LOX inhibitor zileuton (Sequoia Research Products Ltd., UK) is used as a positive control at a concentration of 10 μM representing its IC50 in this test system.
Incubation procedure: The incubation mixture in a 96-well flat bottom microtitre plate (Bibby Sterilin, Staffordshire, UK) consists of 265 μl leukocyte suspension, with 75.5 μM CaCl2, 0.152 μM […] (ETYA) as an inhibitor of the 12-LOX pathway, 0.642 μM Ca ionophore A23187 and 4.43 μM arachidonic acid, the substrate of the 5-LOX pathway, along with 5 μl of each test solution or 5 μl of EtOH p.a. in control wells. After incubation for 10 min at 37° C. in darkness, the reaction is stopped by addition of 20 μl of 10% formic acid. The microtitre plate is centrifuged for 15 min at 1400 rpm to separate free LTB4 from cellular particles before the supernatant is diluted 40 fold in EIA buffer and applied to a competitive LTB4 EIA kit (Assay Designs Inc.).
LTB4 EIA: The plate is incubated for 2 hours at room temperature on an orbital shaker. […]

Row | SMILES | IC50 [µM] | inhibition at 50 µM [%] | IC50 LT assay
1 | CC(C)c1ccc2c(c1)CCC1C(C)(C(=O)O)CCCC21C (stereo not shown) [Dehydroabietic acid] | 44.6 | 47.9 ± 8.4 | 
2 | CC(C)C1=CC2=C(CC1)C1(C)CCCC(C)(C(=O)O)C1CC2 (stereo not shown) [Palustric acid] | 17.8 | 66.7 ± 3.1 | 
3 | C=CC(C)(O)CCC1C(=C)CC(O)C2C(C)(C)CCCC12C (stereo not shown) [Larixol] | > 125 | 32.7 ± 5 | inactive
4 | C=C[C@@]1(C)CC[C@H]2C(=CC[C@@H]3[C@]2(C)CCC[C@@]3(C)C(=O)O)C1 [Isopimaric acid] | 10.2 | 98.1 ± 0.5 | 
5 | CC(C)c1ccc2c(c1)CCC1C(C)(CO)CCCC21C (stereo not shown) [Dehydroabietinol] | 10.9 | 94.5 ± 1.4 | 
6 | C=CC(C)(O)CCC1C(=C)CC(OC(C)=O)C2C(C)(C)CCCC12C (stereo not shown) [Larixyl acetate] | 10.4 | 98.1 ± 0.1 | 

— US20110045083A1, “USE LARCH WOOD FOR TREATING INFLAMMATION” (priority 2007, published 2011)
